Experimental data as given in patent US20230174939A1, “NOVEL ANUCLEATED CELLS AS A SOURCE FOR TREATMENT OF PLATELET RICH PLASMA DEPENDENT DISORDERS” (Stellular Bio, Inc., priority 2020, published 2023).

Assay: Body weight of rats on treatment in MIA osteoarthritis study
Assay type: in vivo, Sprague Dawley rats
Conditions: oral, positive control; treatment stopped early in the study
Experimental: Groups of 20 male Sprague Dawley rats were given a 2 mg intra-articular injection of MIA into the right knee on day 0. On day 18, rats were treated with a single dose of plasmalyte buffer (negative control), PLCs, PLC lysate, or human PRP by intra-articular injection into the right knee.

C[C@@H]1C[C@H]2[C@@H]3CCC4=CC(=O)C=C[C@]4(C)[C@@]3(F)[C@@H](O)C[C@]2(C)[C@@]1(O)C(=O)CO [dexamethasone]
body weight on treatment: began to lose weight
